Measurements taken from PMC10671050, “Alkyl Derivatives of Perylene Photosensitizing Antivirals: Towards Understanding the Influence of Lipophilicity” (International Journal of Molecular Sciences, 2023).
Converted amounts (≈) assume the structure as drawn. “Also recorded” adds a separate entry of the source. Like-named read-outs stand apart in the source and are kept apart here.

What was measured:
[1] = format: physicochemical; settings: methanol, DPBF trap, 450–470 nm, relative to riboflavin
[2] = system: VSV Indiana strain; assay: microbe, parasite or virus in culture; format: cell-based, vesicular stomatitis Indiana virus; settings: Vesicular stomatitis virus, HEK-293T, 1 h, read-out: VSV, EC50
[3] = system: HSV-1, strain MacIntyre; assay: HSV-1 titer reduction assay in Vero cells; settings: 48 h; for viral replication and spread in HSV-1-infected Vero cell culture: inside cell culture (Figure 6C)
[4] = Solubilization in 15% DMSO in water; settings: for solubility: aqueous with cosolvent or surfactant or cyclodextrin, kinetic from dmso stock
Method: To perform this measurement, the compound was dissolved in DMSO and then diluted with water to achieve a solution containing 15% DMSO. The solution was centrifuged, and the resulting supernatant was lyophilized (evaporated) to dryness. Subsequently, the dry residue was dissolved in DMSO, and the concentration of the compound dissolved in DMSO was determined spectrophotometrically.
The mixtures were then centrifuged at 20,000 rcf for 5 min; 500 μL of the supernatant were collected and lyophilized; 76 µL of DMSO were added to the dry residue, and the absorbance was measured at the maximum absorption wavelength for compounds in solutions diluted 200 times with methanol. The data obtained were recalculated according to the law of dilutions and Beer’s law to obtain the initial concentrations of the compounds solubilized in 15% DMSO in water.

[5] = system: HSV-1, strain MacIntyre; assay: Photodynamic inactivation of HSV-1 (virus treated with compound, plaque assay); format: cell-based, herpes simplex virus-1; settings: for HSV-1-inactivating effect after blue light irradiation: 10 µM
[6] = Cytotoxicity assay in Vero cells (Cell Counting Kit-8); format: cell-based; settings: African green monkey, 48 h incubation, compared to controls (DMSO-treated cells)
Method: Vero cells were cultured for 24 h in 96-well plates to form a confluent monolayer and then were treated with the tested compounds at concentrations of 50 µM. After 48 h of cultivation in the dark at 37 °C under 5% CO2, the cell culture medium was aspirated. The potential cytotoxicity of the tested derivatives was determined based on cell viability using Cell Counting Kit-8 (Dojindo Molecular Technologies, Munich, Germany) according to the manufacturer’s instructions.

[7] = Light-induced cytotoxicity (photocytotoxicity) in Vero cells; format: cell-based, African Green Monkey; settings: African green monkey, Vero cells; blue light 465–480 nm, 10 min, then 48 h; read-out: cell viability of Vero cells after irradiation
Method: (§1) Subsequently, cells treated with the compounds were irradiated with LEDs (465–480 nm, 30 mW/cm^2) for 10 min at RT. As a negative control, compound-treated cells were incubated for 10 min in daylight at RT. Then, both the irradiated and non-irradiated cell monolayers were incubated at 37 °C in the dark for 48 h. Subsequently, the cell culture medium was aspirated and the cytotoxicity of the tested perylene derivatives was determined based on cell viability using Cell Counting Kit-8 (Dojindo Molecular Technologies, Munich, Germany) according to the manufacturer’s instructions. Note: all manipulation with samples was performed in daylight (Figure 7K).

[8] = system: Vero cells; assay: as above; format: cell-based, African Green Monkey; settings: blue light 10 min vs daylight, 0–10 µM, 48 h
Method: as §1

[9] = 10 µM, viral titer in medium supernatant
[10] = Human alphaherpesvirus 1, 10 min, HSV-1 10^4 PFU/mL, 10 min in daylight, plaque assay, read-out: EC50 (µM) in Daylight
[11] = Human alphaherpesvirus 1, 10 min, HSV-1 10^4 PFU/mL, blue light 465–480 nm, 30 mW/cm^2, 10 min, plaque assay, read-out: EC50 (µM) under Blue Light

O=c1[nH]c(=O)n([C@H]2C[C@H](O)[C@@H](CO)O2)cc1C#Cc1ccc2c3cccc4cccc(c5cccc1c52)c43 [Compound 11, reference compound]
1O2 Quantum Yield [1]: 38.6 ± 0.8%
EC50 [2]: < 10 µM

CCCCCCCCCCCCc1ccc2c3cccc4c(-c5ccc(C(=O)O)s5)ccc(c5cccc1c25)c43 [Compound 15c, 5-[9(10)-Dodecylperylen-3-yl]thiophene-2-carboxylic acid]
1O2 Quantum Yield [1]: 79.8 ± 8.9%
anti-HSV-1 activity in Vero cells [3, 9]: no anti-HSV-1 activity
EC50 [2]: 10 to 200 µM
solubility [4]: 0.05 µM (≈ 0.0273 µg/mL)
HSV-1-inactivating effect after blue light irradiation [5]: no virus-inactivating effect

Oc1ccc(C#Cc2ccc3c4cccc5cccc(c6cccc2c63)c54)cc1 [Compound 12, reference compound]
EC50 [2]: 10 to 200 µM
viability at 48 h, 10 µM [6]: 109 to 122%
EC50 ([5]; Human alphaherpesvirus 1, 10 min, read-out: EC50 (µM) under Blue Light): 0.472 µM

CCCCc1ccc2c3cccc4c(-c5ccc(C(=O)O)s5)ccc(c5cccc1c25)c43 [Compound 15a, 5-[9(10)-Butylperylen-3-yl]thiophene-2-carboxylic acid]
1O2 Quantum Yield [1]: 91.6 ± 0.2%
viral replication and spread in HSV-1-infected Vero cell culture ([3]; 10 µM): did not suppress viral replication and spread
anti-HSV-1 activity in Vero cells [3, 9]: complete inhibition; also recorded: higher antiviral potency compared to acyclovir
EC50 [2]: 0.2 ± 0.2 µM
solubility [4]: 0.11 µM (≈ 0.0478 µg/mL)
Decrease in EC50 (Fold) [5]: 5.4 fold
fold less active than non-alkylated counterparts (12, 15) [5]: ~3 fold
EC50 ([5]; HSV-1 10^4 PFU/mL, 10 min in daylight, plaque assay, read-out: EC50 (µM) in Daylight): 0.608 µM
EC50 ([5]; HSV-1 10^4 PFU/mL, blue light 465–480 nm, 30 mW/cm^2, 10 min, plaque assay, read-out: EC50 (µM) under Blue Light): 0.112 µM
EC50 [5, 10]: 0.61 µM
EC50 [5, 11]: ~0.1 µM

CCCCCCCCc1ccc2c3cccc4c(C#Cc5cn([C@@H]6O[C@H](CO)[C@@H](O)[C@@H]6O)c(=O)[nH]c5=O)ccc(c5cccc1c52)c43 [Compound 9b, 5-[9(10)-Octylperylen-3-ylethynyl]-arabino-uridine]
1O2 Quantum Yield [1]: 18.6 ± 2.3%
anti-HSV-1 activity in Vero cells [3, 9]: only moderately active
EC50 [2]: 10 to 200 µM
times less effectively dissolved than deoxy- and ribo- analogs (10b, 11b) ([4]; 15% DMSO in water): approximately 1.5 times
solubility [4]: 0.38 µM (≈ 0.24 µg/mL)
viability at 48 h [7]: 115 to 128%
photocytotoxicity to Vero cells [8]: did not increase the cytotoxicity
HSV-1-inactivating effect after blue light irradiation [5]: complete inactivation of HSV-1

Oc1ccc(C#Cc2ccc3c4cccc5cccc(c6cccc2c63)c54)cc1Br [Compound 14, reference compound]
EC50 [2]: 10 to 200 µM
viability at 48 h, 10 µM [6]: 109 to 122%

CCCCCCCCc1ccc2c3cccc4c(C#Cc5cn([C@@H]6O[C@H](CO)[C@@H](O)[C@H]6O)c(=O)[nH]c5=O)ccc(c5cccc1c52)c43 [Compound 10b, 5-[9(10)-Octylperylen-3-ylethynyl]-ribo-uridine]
1O2 Quantum Yield [1]: 19.2 ± 1.5%
anti-HSV-1 activity in Vero cells [3, 9]: only moderately active
EC50 [2]: > 200 µM
solubility [4]: 0.59 µM (≈ 0.372 µg/mL)
HSV-1-inactivating effect after blue light irradiation [5]: complete inactivation of HSV-1

CCCCCCCCc1ccc2c3cccc4c(-c5ccc(C(=O)O)s5)ccc(c5cccc1c25)c43 [Compound 15b, 5-[9(10)-Octylperylen-3-yl]thiophene-2-carboxylic acid]
1O2 Quantum Yield [1]: 72.9 ± 5.6%
viral replication and spread in HSV-1-infected Vero cell culture ([3]; 10 µM): did not suppress viral replication and spread
anti-HSV-1 activity in Vero cells [3, 9]: complete inhibition; also recorded: higher antiviral potency compared to acyclovir
EC50 [2]: 10 to 200 µM
solubility [4]: 0.1 µM (≈ 0.0491 µg/mL)
Decrease in EC50 (Fold) [5]: >3.5 fold
fold less active than non-alkylated counterparts (12, 15) [5]: ~3 fold
HSV-1-inactivating effect in daylight ([5]; 0–10 µM, daylight): only partial or no viral inactivation; also recorded: no virus-inactivating effect
EC50 [5, 10]: > 10 µM
EC50 [5, 11]: 2.89 µM

O=c1[nH]c(=O)n([C@@H]2O[C@H](CO)[C@@H](O)[C@H]2O)cc1C#Cc1ccc2c3cccc4cccc(c5cccc1c52)c43 [Compound 10, reference compound]
1O2 Quantum Yield [1]: 33.6 ± 1.2%
EC50 [2]: < 10 µM
EC50 [5, 11]: 0.116 µM

CCCCCCCCCCCCc1ccc2c3cccc4c(C#Cc5cn([C@@H]6O[C@H](CO)[C@@H](O)[C@H]6O)c(=O)[nH]c5=O)ccc(c5cccc1c52)c43 [Compound 10c, 5-[9(10)-Dodecylperylen-3-ylethynyl]-ribo-uridine]
1O2 Quantum Yield [1]: 28.7 ± 8.6%
anti-HSV-1 activity in Vero cells [3, 9]: completely inactive
EC50 [2]: > 200 µM
solubility [4]: 0.24 µM (≈ 0.165 µg/mL)

O=C(O)c1ccc(-c2ccc3c4cccc5cccc(c6cccc2c63)c54)s1 [Compound 15, 5-(perylene-3-yl)thiophenecarboxylic acid, reference compound]
1O2 Quantum Yield [1]: 73.2 ± 8.9%
EC50 [2]: < 10 µM
EC50 [5, 11]: 0.038 µM

Nc1nc2c(ncn2COCCO)c(=O)[nH]1 [acyclovir, reference compound]
anti-HSV-1 activity in Vero cells ([3]; 50 µM): completely inhibited HSV-1 replication

CCCCc1ccc2c3cccc4c(C#Cc5cn([C@@H]6O[C@H](CO)[C@@H](O)[C@H]6O)c(=O)[nH]c5=O)ccc(c5cccc1c52)c43 [Compound 10a, 5-[9(10)-Butylperylen-3-ylethynyl]-ribo-uridine]
1O2 Quantum Yield [1]: 23.1 ± 2.2%
viral replication and spread in HSV-1-infected Vero cell culture ([3]; 10 µM): did not suppress viral replication and spread
anti-HSV-1 activity in Vero cells [3, 9]: completely inhibited viral replication; also recorded: higher antiviral potency compared to acyclovir
EC50 [2]: 10 to 200 µM
viability at 48 h, 10 µM [6]: ~80%
solubility in 15% DMSO in water ([4]; 15% DMSO in water): lower solubility
solubility [4]: 0.02 µM (≈ 0.0115 µg/mL)
Decrease in EC50 (Fold) [5]: 20.3 fold
EC50 [5, 10]: 2.18 µM
EC50 [5, 11]: 0.107 µM

Oc1cccc(C#Cc2ccc3c4cccc5cccc(c6cccc2c63)c54)c1 [Compound 13, reference compound]
EC50 [2]: 10 to 200 µM
viability at 48 h, 10 µM [6]: 109 to 122%

O=c1[nH]c(=O)n([C@@H]2O[C@H](CO)[C@@H](O)[C@@H]2O)cc1C#Cc1ccc2c3cccc4cccc(c5cccc1c52)c43 [Compound 9, reference compound]
1O2 Quantum Yield [1]: 40.1 ± 4.0%
EC50 [2]: < 10 µM

CCCCCCCCCCCCc1ccc2c3cccc4c(C#Cc5cn([C@@H]6O[C@H](CO)[C@@H](O)[C@@H]6O)c(=O)[nH]c5=O)ccc(c5cccc1c52)c43 [Compound 9c, 5-[9(10)-Dodecylperylen-3-ylethynyl]-arabino-uridine]
1O2 Quantum Yield [1]: 22.5 ± 3.4%
anti-HSV-1 activity in Vero cells [3, 9]: completely inactive
EC50 [2]: > 175 µM
solubility [4]: 0.24 µM (≈ 0.165 µg/mL)
viability at 48 h [7]: 115 to 128%
photocytotoxicity to Vero cells [8]: did not increase the cytotoxicity

CCCCCCCCc1ccc2c3cccc4c(C#Cc5cn([C@H]6C[C@H](O)[C@@H](CO)O6)c(=O)[nH]c5=O)ccc(c5cccc1c52)c43 [Compound 11b, 5-[9(10)-Octylperylen-3-ylethynyl]-deoxy-uridine]
1O2 Quantum Yield [1]: 21.0 ± 2.0%
anti-HSV-1 activity in Vero cells [3, 9]: only moderately active
EC50 [2]: 10 to 200 µM
viability at 48 h, 10 µM [6]: ~120%
solubility [4]: 0.67 µM (≈ 0.412 µg/mL)
